Experimental data from article PMC7914897, “Cytotoxic Potential of a-Azepano- and 3-Amino-3,4-SeCo-Triterpenoids” (International Journal of Molecular Sciences, 2021).

Legend:
[1] = tested on: A2780 (ovarian carcinoma); experiment: SRB cytotoxicity assay, 72 h; format: cell-based, human; details: Homo sapiens; A2780, 72 h, cut-off 30 µM; read-out: EC50
Method in brief: (§1)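 EC50 values reflect percent surviving cells versus untreated controls, read at 570 nm after SRB staining of TCA-fixed monolayers. Dosing spanned 0–30 µM over 72 h.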

[2] = tested on: A375 (malignant melanoma); experiment: SRB cytotoxicity assay, 72 h; format: cell-based, human; details: Homo sapiens, A-375, 72 h, A375, 72 h, cut-off 30 µM; read-out: EC50
Method in brief: as §1

[3] = tested on: FaDu (hypopharyngeal carcinoma); experiment: SRB cytotoxicity assay, 72 h; format: cell-based, human; details: Homo sapiens, cut-off 30 µM, read-out: EC50
Method in brief: as §1

[4] = tested on: HT29 (colorectal carcinoma); experiment: SRB cytotoxicity assay, 72 h; format: cell-based, human; details: Homo sapiens, HT-29; HT29, 72 h, cut-off 30 µM; read-out: EC50
Method in brief: as §1

MCF-7 (breast carcinoma) = experiment: SRB cytotoxicity assay, 72 h; format: cell-based, human; details: Homo sapiens, MCF7; MCF-7, 72 h, cut-off 30 µM; read-out: EC50
Method in brief: as §1

OVCAR-4 (Ovarian cancer) = experiment: NCI-60 screen (SRB, 48 h); format: cell-based; details: Homo sapiens
CNS cancer subpanel = experiment: NCI-60 screen, subpanel; details: Homo sapiens
Renal Cancer subpanel = experiment: NCI-60 screen, subpanel; details: Homo sapiens
EKVX (NSC lung cancer) = experiment: NCI-60 screen (SRB, 48 h); details: Homo sapiens
[5] = tested on: NCI-H226 (NSC lung cancer); experiment: NCI-60 screen (SRB, 48 h); details: Homo sapiens
[6] = tested on: NCI-H460 (NSC lung cancer); experiment: NCI-60 screen (SRB, 48 h); details: Homo sapiens
[7] = tested on: NCI-H522 (NSC lung cancer); experiment: NCI-60 screen (SRB, 48 h); details: Homo sapiens
HCC-2998 (Colon cancer) = experiment: NCI-60 screen (SRB, 48 h); details: Homo sapiens
KM12 (Colon cancer) = experiment: NCI-60 screen (SRB, 48 h); details: Homo sapiens
SW-620 (Colon cancer) = experiment: NCI-60 screen (SRB, 48 h); details: Homo sapiens
SF-295 (CNS cancer) = experiment: NCI-60 screen (SRB, 48 h); details: Homo sapiens
SNB-19 (CNS cancer) = experiment: NCI-60 screen (SRB, 48 h); details: Homo sapiens
MALME-3M (Melanoma) = experiment: NCI-60 screen (SRB, 48 h); details: Homo sapiens
SK-MEL-5 (Melanoma) = experiment: NCI-60 screen (SRB, 48 h); details: Homo sapiens
A498 (Renal cancer) = experiment: NCI-60 screen (SRB, 48 h); details: Homo sapiens
ACHN (Renal cancer) = experiment: NCI-60 screen (SRB, 48 h); details: Homo sapiens
TK-10 (Renal cancer) = experiment: NCI-60 screen (SRB, 48 h); details: Homo sapiens
MCF7 (Breast cancer) = experiment: NCI-60 screen (SRB, 48 h); details: Homo sapiens
T-47D (Breast cancer) = experiment: NCI-60 screen (SRB, 48 h); details: Homo sapiens, T47D

With `CC(C)=C1CCC=C2CC[C@]3(C)[C@H](CC[C@@H]4[C@@]5(C)CCCNC(C)(C)[C@@H]5CC[C@]43C)[C@H]21` [Compound 9] the EC50 [1] was 2190 ± 100 nM, the EC50 [2] was 1710 ± 100 nM and the EC50 [3] was 1580 ± 200 nM. It also gave an EC50 [4] of 1180 ± 100 nM, an EC50 (MCF-7 (breast carcinoma)) of 1520 nM and an IC (TGI) (OVCAR-4 (Ovarian cancer); OVCAR-4, 48 h) of 3.6 µM. The GI50 (OVCAR-4 (Ovarian cancer); OVCAR-4, read-out: GI50) was 1990 nM, the IC (TGI) (CNS cancer subpanel; 48 h, read-out: TGI MG_MID) was 3.44 µM and the GI50 (CNS cancer subpanel; read-out: GI50 MG_MID) was 1830 nM. It also gave a CC50 (CNS cancer subpanel; read-out: LC50 MG_MID) of 6.61 µM, an IC (TGI) (Renal Cancer subpanel; 48 h, read-out: TGI MG_MID) of 3.25 µM and a GI50 (Renal Cancer subpanel; read-out: GI50 MG_MID) of 1720 nM. The CC50 (Renal Cancer subpanel; read-out: LC50 MG_MID) was 6.03 µM, the GI50 (EKVX (NSC lung cancer)) was 1740 nM and the IC (TGI) (EKVX (NSC lung cancer); 48 h, read-out: TGI) was 3.38 µM. The CC50 (EKVX (NSC lung cancer); read-out: LC50) was 6.56 µM, the GI50 ([5]; NCI-H226) was 1790 nM and the IC (TGI) ([5]; NCI-H226, 48 h, read-out: TGI) was 3.54 µM. For the same molecule, the GI50 ([6]; NCI-H460) was 1480 nM, the IC (TGI) ([6]; NCI-H460, 48 h, read-out: TGI) was 3.09 µM and the CC50 ([6]; NCI-H460, read-out: LC50) was 6.45 µM. The GI50 ([7]; NCI-H522) was 1800 nM, the IC (TGI) ([7]; NCI-H522, 48 h, read-out: TGI) was 3.44 µM and the GI50 (HCC-2998 (Colon cancer); HCC 2998) was 1740 nM. For the same molecule, the IC (TGI) (HCC-2998 (Colon cancer); HCC 2998, 48 h, read-out: TGI) was 3.19 µM, the GI50 (KM12 (Colon cancer); KM12) was 1920 nM and the IC (TGI) (KM12 (Colon cancer); KM12, 48 h, read-out: TGI) was 3.42 µM. The GI50 (SW-620 (Colon cancer); SW-620) was 1660 nM, the IC (TGI) (SW-620 (Colon cancer); SW-620, 48 h, read-out: TGI) was 3.23 µM and the GI50 (SF-295 (CNS cancer); SF-295) was 1870 nM. The IC (TGI) (SF-295 (CNS cancer); SF-295, 48 h, read-out: TGI) was 3.42 µM, the CC50 (SF-295 (CNS cancer); SF-295, read-out: LC50) was 6.24 µM and the GI50 (SNB-19 (CNS cancer); SNB-19) was 1810 nM. The IC (TGI) (SNB-19 (CNS cancer); SNB-19, 48 h, read-out: TGI) was 3.36 µM, the GI50 (MALME-3M (Melanoma)) was 1770 nM and the IC (TGI) (MALME-3M (Melanoma); 48 h, read-out: TGI) was 3.48 µM. For the same molecule, the CC50 (MALME-3M (Melanoma); read-out: LC50) was 6.84 µM, the GI50 (SK-MEL-5 (Melanoma); SK-MEL-5) was 1700 nM and the IC (TGI) (SK-MEL-5 (Melanoma); SK-MEL-5, 48 h, read-out: TGI) was 3.08 µM. The CC50 (SK-MEL-5 (Melanoma); SK-MEL-5, read-out: LC50) was 5.56 µM, the GI50 (A498 (Renal cancer); A498) was 1870 nM and the IC (TGI) (A498 (Renal cancer); A498, 48 h, read-out: TGI) was 3.6 µM. It also gave a CC50 (A498 (Renal cancer); A498, read-out: LC50) of 6.93 µM, a GI50 (ACHN (Renal cancer)) of 1760 nM and an IC (TGI) (ACHN (Renal cancer); 48 h, read-out: TGI) of 3.14 µM. It also gave a CC50 (ACHN (Renal cancer); read-out: LC50) of 5.62 µM, a GI50 (TK-10 (Renal cancer); TK-10) of 1810 nM and an IC (TGI) (TK-10 (Renal cancer); TK-10, 48 h, read-out: TGI) of 3.37 µM. The CC50 (TK-10 (Renal cancer); TK-10, read-out: LC50) was 6.3 µM, the GI50 (MCF7 (Breast cancer); MCF7) was 1770 nM and the IC (TGI) (MCF7 (Breast cancer); MCF7, 48 h, read-out: TGI) was 3.54 µM. It also gave a GI50 (T-47D (Breast cancer)) of 1630 nM and an IC (TGI) (T-47D (Breast cancer); 48 h, read-out: TGI) of 3.46 µM.
